How the values were obtained:
[1] = Hydroxyl (HO•) free radical scavenging assay (competition with DMSO)
Source text: The hydroxyl (HO^•) free radical is considered as the most toxic and reactive radical among the ROS, leading to cellular or protein damage, membrane destruction, and even to cellular death when encountered in excess concentration. In this context, the evaluation of the hydroxyl radical scavenging activity of the coumarin analogues was essential. Hydroxyl radicals are mainly produced by the Haber–Weiss reaction in the presence of iron or copper ions. In this protocol, iron-EDTA solution, which catalyzes the autooxidation of ascorbic acid, was used as the hydroxyl radical generation system. In general, the hydroxyl radicals formed oxidize the DMSO to form formaldehyde. The reaction involves the initial interaction of DMSO with the hydroxyl radicals to give methyl radicals, with the final product being formaldehyde, which is determined by Nash method. The intensity of the yellow solution formed was measured at 412 nm against a reagent blank.
For the evaluation of hydroxyl radical scavenging ability, the protocol described by Kontogiorgis et al. was used. In short, each sample was tested in quadruplicate (A, B, C, D). For A and B, 10 μL of coumarin analogs diluted in DMSO (100 mM) were added; for C and D were the respective blanks. Standards (containing DMSO solution) and blanks were all prepared in a similar manner; to the latter an equal amount (10 µL) of solvent was added instead of the tested analogues. According to the protocol described by Klein et al., standard solutions of EDTA, FeCl3, ascorbic acid, and buffer solution (pH 7.4) were also added to each of the tested mixtures. All mixtures were incubated at 37 °C for 30 min, and then 1 mL of Nash solution and […] of CCl3COOH solution were added. After a 10min incubation at 60 °C to allow the formation of the yellow mixture, the absorbance was measured at […].
The results were calculated as performance percentages in relation to the respective standards and blanks according to the following Equation (4):(4) % Scavenging ability= Mean OD(A+B)−Mean OD(C+D)/Mean OD(A+B)

[2] = Inhibition of AAPH induced linoleic acid oxidation (lipid peroxidation)
Source text: AAPH induced linoleic acid oxidation has been developed as a quick and reliable antioxidant activity assay. It is based on the inhibition of linoleic acid oxidation, initiated by the thermal free radical producer 2,2′-azobis(2-amidinopropane) dihydrochloride (AAPH), providing a measure of how efficiently antioxidants protect against lipid oxidation in vitro. Oxidation of exogenous linoleic acid by AAPH is followed by UV spectrophotometry at 234 nm in a highly diluted sample [38].
For the reference sample in a UV cuvette, 10 μL of the test sample (100 μM diluted in DMSO), 10 μL linoleic acid (LA) (16 mM), and buffer solution (pH 7.4) were added to a final volume of 1ml. For the measurement sample, in a UV cuvette, 10 μL of test sample, 50 μL AAPH (40 mM), 10 μL LA, and buffer solution were added to a final volume of 1 mL. Standard and blank samples were prepared in the same way using DMSO (solvent) instead of the tested coumarin analogues. The absorbance was measured after 2 min at 37 °C at 234 nm. Results were obtained via the following Equation (5):(5) %Inhibition=(Standard−Blank)−(Reference Sample−Measurement Sample)/(Standard−Blank) × 100

[3] = MTT cell viability assay, HaCaT; type: cell-based, human; settings: human, HaCaT cells, 100 μΜ, 24 h
Source text: (§1) The MTT assay (3- [4,5-dimethylthiazol-2-yl] -2,5 diphenyl tetrazole) is based on the conversion of MTT to formazan crystals by living cells, which determines mitochondrial activity. Since for most cell populations total mitochondrial activity is related to the number of viable cells, this assay is widely used to measure the in vitro cytotoxic effects of drugs on various cell lines or primary cells. The principle of the MTT assay is that for most viable cells the mitochondrial activity is stable, and therefore, an increase or decrease in the number of viable cells is linearly related to mitochondrial activity. The mitochondrial activity of the cells is reflected by the conversion of the MTT tetrazole salt to formazan crystals (bright purple), which can be solubilized (in this protocol with DMSO) for homogeneous measurement. Thus, any increase or decrease in the number of viable cells can be detected by measuring the formazan concentration reflected in the optical density (OD) measurement at 540 nm with a reference absorption of 720 nm.
(§2) All the compounds were tested for their cytotoxic activity against blank and control samples in the human epidermal keratinocyte line (HaCaT), at the concentration of 100 μΜ, and the results are presented in Table 4.
(§3) This protocol was used for the evaluation of cell viability and all the cell lines. It must be noted that this assay describes the count of cells that remain alive after the treatment. For the experimental procedure a standard solution of MTT 1mg/mL in PBS was prepared which after filtration ([…] filter (Millipore, Carrigtwohill, Ireland)) was stored in the dark (4–8 °C) until use. In a 96-well plate, HaCaT, A549 and A375 cells were seeded in a number of 30 × 10^4 cells/well for each evaluation series respectively. The cells were incubated (37 °C, 5% CO2) for 24 h, followed by the addition of the tested analogues (100 μM, diluted in DMEM) and another 24-h incubation. Next, appropriate amount of MTT was added in the tested wells and the plate returned to the incubator for the next 4 h for the formation of the formazan crystals. The formazan crystals were then redissolved by adding DMSO (100 μL) and stirring lightly for 40 min, after which the absorbance was measured in a plate reader at 540 nm with a reference absorbance of 720 nm.
(§4) All samples were tested in triplicate, against a control (only cells), blank (no cells), and positive control (100 μM standard silibinin solution was used as a “cell-killing” standard).

HaCaT cells = assay: MTT cell viability assay, HaCaT; type: cell-based, human; settings: 100 μM
Source text: as §1, §2, §3, §4

A375 cells = assay: MTT cytotoxicity assay, A375; type: cell-based, human; settings: for cytotoxicity at 100 µM: Homo sapiens, A-375, 24 h, A375, 100 μΜ, read-out: Cell Toxicity A375 % (100 μΜ)
Procedure: Furthermore, the coumarin compounds synthesized in this study were also evaluated for their cytotoxicity against A549 (adenocarcinomic human alveolar basal epithelial cells) and A375 (human melanoma) cell lines.
as §3, §4

Row | SMILES | HO^• % (100 μΜ) scavenging [1] | IC50 [2] | viability at 24 h, 100 μM [3] | cytotoxicity in HaCaT (HaCaT cells) | cytotoxicity at 100 µM (A375 cells) | AAPH % inhibition (100 μΜ) ([2]; 100 μΜ) | Cell Toxicity A375 % (100 μΜ) (A375 cells; 24 h)
1 | Cc1c(-c2ccc(Cl)cc2)c(=O)oc2cccc(O)c12 [Compound 4c, 3-(4-chlorophenyl)-5-hydroxy-4-methyl-chromen-2-one] | 48.5% | 86.6 µM | 63.7% | 63.7% | 22.2% | – | –
2 | Cc1c(-c2ccc(O)cc2)c(=O)oc2ccc(Br)cc12 [Compound 4i, 6-bromo-3-(4-hydroxyphenyl)-4-methyl-chromen-2-one] | 100% | 70.7 µM | 100% | – | 6.48% | – | –
3 | Cc1c(-c2ccc(O)cc2)c(=O)oc2ccc(Cl)cc12 [Compound 4j, 6-chloro-3-(4-hydroxyphenyl)-4-methyl-chromen-2-one] | 100% | – | 73% | 73% | 11.9% | 36.1% | –
4 | Cc1c(-c2ccc(O)cc2)c(=O)oc2c(Br)cc(Br)cc12 [Compound 4k, 6,8-dibromo-3-(4-hydroxyphenyl)-4-methyl-chromen-2-one] | 100% | 36.9 µM | 100% | – | – | – | no
